According to the NIST ThermoML archive (doi:10.1021/je100707s):
Values joined by “and” are separate entries in the source; they are usually repeats but may differ in a detail not shown here. Identical values can stand only once.

Conditions: Gas, Bellows volumetry

F/C=C/C(F)(F)F [trans-1,3,3,3-tetrafluoropropene]
Conditions | mass density
310 K, 657 kPa | 34.36 kg/m3
310 K, 669 kPa | 35.06 kg/m3
310 K, 681 kPa | 35.86 kg/m3
310 K, 695 kPa | 36.78 kg/m3
320 K, 691 kPa | 34.42 kg/m3
320 K, 701 kPa | 35.05 kg/m3
320 K, 716 kPa | 35.92 kg/m3
320 K, 730 kPa | 36.8 kg/m3
320 K, 743 kPa | 37.6 kg/m3
320 K, 759 kPa | 38.61 kg/m3
320 K, 775 kPa | 39.62 kg/m3
320 K, 791 kPa | 40.64 kg/m3
320 K, 808 kPa | 41.76 kg/m3
320 K, 823 kPa | 42.77 kg/m3
320 K, 837 kPa | 43.67 kg/m3
320 K, 851 kPa | 44.36 kg/m3
320 K, 866 kPa | 45.45 kg/m3
320 K, 881 kPa | 46.49 kg/m3
320 K, 899 kPa | 47.75 kg/m3
320 K, 910 kPa | 48.63 kg/m3
330 K, 718 kPa | 34.26 kg/m3
330 K, 731 kPa | 34.99 kg/m3
330 K, 746 kPa | 35.85 kg/m3
330 K, 762 kPa | 36.76 kg/m3
330 K, 778 kPa | 37.66 kg/m3
330 K, 792 kPa | 38.48 kg/m3
330 K, 810 kPa | 39.52 kg/m3
330 K, 828 kPa | 40.65 kg/m3
330 K, 844 kPa | 41.61 kg/m3
330 K, 866 kPa | 42.95 kg/m3
330 K, 893 kPa | 44.43 kg/m3
330 K, 908 kPa | 45.39 kg/m3
330 K, 927 kPa | 46.54 kg/m3
330 K, 943 kPa | 47.55 kg/m3
330 K, 961 kPa | 48.73 kg/m3
330 K, 981 kPa | 50.03 kg/m3
330 K, 1001 kPa | 51.36 kg/m3
330 K, 1020 kPa | 52.67 kg/m3
330 K, 1041 kPa | 54.12 kg/m3
330 K, 1063 kPa | 55.64 kg/m3
330 K, 1075 kPa | 56.44 kg/m3
330 K, 1097 kPa | 57.98 kg/m3
330 K, 1113 kPa | 59.21 kg/m3
330 K, 1139 kPa | 61.03 kg/m3
330 K, 1165 kPa | 63.02 kg/m3
340 K, 747 kPa | 34.24 kg/m3
340 K, 762 kPa | 35.03 kg/m3
340 K, 778 kPa | 35.89 kg/m3
340 K, 794 kPa | 36.75 kg/m3
340 K, 810 kPa | 37.63 kg/m3
340 K, 827 kPa | 38.54 kg/m3
340 K, 845 kPa | 39.55 kg/m3
340 K, 864 kPa | 40.55 kg/m3
340 K, 882 kPa | 41.66 kg/m3
340 K, 903 kPa | 42.85 kg/m3
340 K, 921 kPa | 43.82 kg/m3
340 K, 933 kPa | 44.41 kg/m3
340 K, 953 kPa | 45.51 kg/m3
340 K, 971 kPa | 46.56 kg/m3
340 K, 989 kPa | 47.62 kg/m3
340 K, 1008 kPa | 48.82 kg/m3
340 K, 1030 kPa | 50.12 kg/m3
340 K, 1049 kPa | 51.33 kg/m3
340 K, 1069 kPa | 52.63 kg/m3
340 K, 1090 kPa | 53.99 kg/m3
340 K, 1117 kPa | 55.66 kg/m3
340 K, 1134 kPa | 56.71 kg/m3
340 K, 1154 kPa | 58.04 kg/m3
340 K, 1175 kPa | 59.4 kg/m3
340 K, 1196 kPa | 60.76 kg/m3
340 K, 1218 kPa | 62.25 kg/m3
340 K, 1238 kPa | 63.68 kg/m3
340 K, 1262 kPa | 65.39 kg/m3
340 K, 1284 kPa | 67.01 kg/m3
340 K, 1305 kPa | 68.59 kg/m3
340 K, 1308 kPa | 68.83 kg/m3
340 K, 1331 kPa | 70.6 kg/m3 and 70.59 kg/m3
340 K, 1354 kPa | 72.27 kg/m3
340 K, 1356 kPa | 72.51 kg/m3
340 K, 1378 kPa | 74.19 kg/m3
340 K, 1384 kPa | 74.55 kg/m3
340 K, 1398 kPa | 75.77 kg/m3
340 K, 1420 kPa | 77.51 kg/m3
340 K, 1441 kPa | 79.28 kg/m3
340 K, 1465 kPa | 81.46 kg/m3
340 K, 1482 kPa | 83.02 kg/m3
340 K, 1490 kPa | 83.71 kg/m3
350 K, 777 kPa | 34.25 kg/m3
350 K, 794 kPa | 35.1 kg/m3
350 K, 809 kPa | 35.85 kg/m3
350 K, 824 kPa | 36.66 kg/m3
350 K, 841 kPa | 37.55 kg/m3
350 K, 861 kPa | 38.6 kg/m3
350 K, 880 kPa | 39.57 kg/m3
350 K, 899 kPa | 40.59 kg/m3
350 K, 921 kPa | 41.8 kg/m3
350 K, 943 kPa | 42.97 kg/m3
350 K, 974 kPa | 44.44 kg/m3
350 K, 992 kPa | 45.42 kg/m3
350 K, 1009 kPa | 46.4 kg/m3
350 K, 1033 kPa | 47.69 kg/m3
350 K, 1050 kPa | 48.68 kg/m3
350 K, 1073 kPa | 49.96 kg/m3
350 K, 1081 kPa | 50.42 kg/m3
350 K, 1097 kPa | 51.34 kg/m3
350 K, 1118 kPa | 52.57 kg/m3
350 K, 1146 kPa | 54.28 kg/m3
350 K, 1166 kPa | 55.47 kg/m3
350 K, 1184 kPa | 56.54 kg/m3
350 K, 1212 kPa | 58.14 kg/m3
350 K, 1228 kPa | 59.18 kg/m3
350 K, 1253 kPa | 60.74 kg/m3
350 K, 1281 kPa | 62.46 kg/m3
350 K, 1299 kPa | 63.7 kg/m3
350 K, 1325 kPa | 65.31 kg/m3
350 K, 1352 kPa | 67.13 kg/m3
350 K, 1374 kPa | 68.68 kg/m3
350 K, 1376 kPa | 68.87 kg/m3
350 K, 1400 kPa | 70.45 kg/m3
350 K, 1403 kPa | 70.69 kg/m3
350 K, 1422 kPa | 72.01 kg/m3
350 K, 1434 kPa | 72.82 kg/m3
350 K, 1451 kPa | 74.02 kg/m3
350 K, 1460 kPa | 74.47 kg/m3
350 K, 1474 kPa | 75.65 kg/m3
350 K, 1499 kPa | 77.45 kg/m3
350 K, 1526 kPa | 79.54 kg/m3
350 K, 1552 kPa | 81.57 kg/m3
350 K, 1580 kPa | 83.73 kg/m3
350 K, 1611 kPa | 86.28 kg/m3
350 K, 1645 kPa | 88.62 kg/m3
350 K, 1667 kPa | 90.44 kg/m3
350 K, 1692 kPa | 92.58 kg/m3
350 K, 1722 kPa | 95.16 kg/m3
350 K, 1748 kPa | 97.5 kg/m3
350 K, 1773 kPa | 99.83 kg/m3
350 K, 1798 kPa | 102.24 kg/m3
350 K, 1822 kPa | 104.65 kg/m3
350 K, 1850 kPa | 107.61 kg/m3
350 K, 1869 kPa | 109.92 kg/m3
360 K, 806 kPa | 34.26 kg/m3
360 K, 822 kPa | 35.02 kg/m3
360 K, 838 kPa | 35.83 kg/m3
360 K, 858 kPa | 36.81 kg/m3
360 K, 872 kPa | 37.5 kg/m3
360 K, 893 kPa | 38.54 kg/m3
360 K, 914 kPa | 39.59 kg/m3
360 K, 934 kPa | 40.62 kg/m3
360 K, 957 kPa | 41.79 kg/m3
360 K, 980 kPa | 42.97 kg/m3
360 K, 996 kPa | 43.76 kg/m3
360 K, 1013 kPa | 44.41 kg/m3
360 K, 1032 kPa | 45.38 kg/m3
360 K, 1053 kPa | 46.47 kg/m3
360 K, 1076 kPa | 47.64 kg/m3
360 K, 1093 kPa | 48.62 kg/m3
360 K, 1123 kPa | 50.21 kg/m3
360 K, 1142 kPa | 51.25 kg/m3
360 K, 1164 kPa | 52.52 kg/m3
360 K, 1190 kPa | 53.97 kg/m3
360 K, 1217 kPa | 55.45 kg/m3
360 K, 1246 kPa | 56.97 kg/m3
360 K, 1249 kPa | 57.15 kg/m3
360 K, 1263 kPa | 57.94 kg/m3
360 K, 1285 kPa | 59.28 kg/m3
360 K, 1310 kPa | 60.71 kg/m3
360 K, 1335 kPa | 62.17 kg/m3
360 K, 1359 kPa | 63.66 kg/m3
360 K, 1386 kPa | 65.23 kg/m3
360 K, 1414 kPa | 66.98 kg/m3
360 K, 1438 kPa | 68.45 kg/m3
360 K, 1441 kPa | 68.77 kg/m3
360 K, 1466 kPa | 70.29 kg/m3 and 70.3 kg/m3
360 K, 1493 kPa | 72.04 kg/m3
360 K, 1502 kPa | 72.6 kg/m3
360 K, 1523 kPa | 73.94 kg/m3
360 K, 1535 kPa | 74.54 kg/m3
360 K, 1545 kPa | 75.43 kg/m3
360 K, 1580 kPa | 77.76 kg/m3
360 K, 1607 kPa | 79.57 kg/m3
360 K, 1634 kPa | 81.53 kg/m3
360 K, 1665 kPa | 83.71 kg/m3
360 K, 1695 kPa | 85.89 kg/m3
360 K, 1725 kPa | 87.95 kg/m3
360 K, 1737 kPa | 88.54 kg/m3
360 K, 1760 kPa | 90.28 kg/m3
360 K, 1787 kPa | 92.36 kg/m3
360 K, 1815 kPa | 94.55 kg/m3
360 K, 1850 kPa | 97.28 kg/m3
360 K, 1886 kPa | 100.24 kg/m3
360 K, 1926 kPa | 103.58 kg/m3
360 K, 1936 kPa | 104.54 kg/m3
360 K, 1964 kPa | 107.1 kg/m3
360 K, 1999 kPa | 110.25 kg/m3
360 K, 2157 kPa | 125.99 kg/m3
360 K, 2180 kPa | 128.5 kg/m3
360 K, 2212 kPa | 132.17 kg/m3
360 K, 2224 kPa | 133.7 kg/m3
360 K, 2247 kPa | 136.47 kg/m3
360 K, 2279 kPa | 140.52 kg/m3
360 K, 2287 kPa | 141.76 kg/m3
360 K, 2300 kPa | 143.52 kg/m3
